Test results published in patent publication US11607421B2, “Ethanolamine-based lipid biosynthetic compounds, method of making and use thereof” (Metanoi Therapeutics, Inc., priority 2016, dated 2023).

Assays:
DU145 = assay: MTT cell proliferation assay; format: cell-based, human; settings: 0.5 mg/ml Etn, 48 h; range given for PC-3, DU145 and C4-2B together
Description: After 48 h, drug containing medium was replaced by medium containing MTT (tetrazolium bromide) at a concentration of 0.5 mg/ml. The yellow tetrazolium salt is reduced to insoluble purple formazan by viable cells. After 4 h of incubation in dark, formazan crystals produced by viable cells were dissolved by 200 μl DMSO and the amount of formazan crystals formed was quantified by recording the absorbance at 570 nm using multi-well plate reader. […] After 10 days, colonies were fixed with 4% formaldehyde, stained with crystal violet and counted.

[1] = Stability in simulated gastric fluid (SGF); format: in vitro ADME; settings: 10 μM, SGF pH 1.2, over 1 h
Description: (§1) Samples (100 μl) were drawn at 0, 15, 30 and 60 min from SGF reaction-vials and at 0, 30, 60 and 120 min from SIF reaction-vials, quenched with acetonitrile, vortex-mixed, and centrifuged before supernatant analysis by LC-MS/MS analysis. […] For PK studies, a sparse sampling design with 3 mice per time point was used to collect blood samples at 5, 10, 15, 30 min and 1, 2, 3, 4, 5 and 6 h in K2EDTA-coated tubes. The pharmacokinetic parameters (AUClast, Cmax, CL and Vss) were calculated using non-compartmental analysis tool of Phoenix WinNonlin software (version 6.3).
Given the extreme pH and various digestive enzymes, the GI tract presents a harsh environment to any ingested xenobiotic. Thus, many potential drug candidates are degraded in the GI tract, explaining their decreased bioavailability or inability to reach the target at effective concentrations. Simulated gastric fluid (SGF; pH 1.2) and simulated intestinal fluid (SIF; pH 6.8) closely mimic the GI tract environment and are amenable in vitro systems to evaluate degradation of a compound in GI tract (US Pharmacopoia).
Simulated gastric fluid was prepared as per U.S. Pharmacopeia (USP) methods. Sodium chloride (2 g) and pepsin (3.2 g, from porcine stomach mucosa) were dissolved in 7.0 ml hydrochloric acid and Milli-Q water to make up the volume to 1000 ml and the pH was adjusted to 1.2. […]

PC-3 cells = assay: Oxygen consumption rate (OCR), oxygen electrode; format: cell-based, human; settings: 2 mg/ml Etn, 48 h, 1×10^6 cells/ml
Description: (§2) OCR was measured using an oxygen electrode.
OCRs were measured using a computer-interfaced oxygen electrode (Hansatech Instruments, Inc., Norfolk, England) by monitoring the initial rate of oxygen consumption at 37° C. and atmospheric oxygen concentration (230 μM O2).

[2] = test system: p53, p21, Bax, pBcl-2, c-PARP, Bim, Bid, HIF1-α; assay: Immunoblot of PC-3-luc tumor lysates; format: in vivo, mice
Description: as §2
Since p21, Bax and pBcl2 are downstream effectors of p53, p53 expression levels were examined in control and Etn-treated tumors, as well as control and Etn-treated PC-3 cells.
To test this hypothesis, HIF1-α expression levels were analyzed in Etn-treated tumors and PC-3 cells. […] DMOG, an HIF1-α activator, was then employed to test whether Etn-mediated cell death in PC-3 cells was associated with HIF1-α stabilization (active HIF1-α signaling).
Proteins were resolved by polyacrylamide gel electrophoresis and transferred onto polyvinylidene difluoride membranes (Millipore, Billerica, Mass., USA). The membranes were blocked in Tris-buffered saline containing 0.05% Tween-20 and 5% fat-free dry milk and incubated first with primary antibodies and then with horseradish peroxidase-conjugated secondary antibodies. Specific proteins were visualized with enhanced chemiluminescence detection reagent according to the manufacturer's instructions (Pierce Biotechnology, Rockford, Ill., USA).

[3] = Pharmacokinetic studies, single oral and intravenous dose; format: in vivo, BALB/c mice
Description: as §1
Nine animals per group were used for PK studies. A sparse sampling design was used to collect blood samples from animals at 5 min, 10 min, 15 min, 30 min, 1, 2, 3, 4, 5, and 6 h in K2EDTA coated tubes. Plasma was collected from blood by centrifugation of samples at 8000 g for 10 min. Plasma samples were stored below −60° C. until further analysis.
PK parameters were calculated from the concentration-time data using the non-compartmental analysis tool of Phoenix WinNolin® software (version 6.3, Pharsight, St Louis, Mo.). The area under the concentration time curve (AUClast) was calculated by the linear trapezoidal rule. Following oral administration, peak concentration (Cmax) and time for the peak concentration (Tmax) were the observed values. The clearance (CL) and volume of distribution (Vss) were estimated following IV dose administration. The elimination rate constant value (k) was obtained by linear regression of the log-linear terminal phase of the concentration-time profile using at least three declining concentrations in terminal phase with a correlation coefficient of >0.8. The terminal half-life value (T1/2) was calculated using the equation ln 2/k. Oral bioavailability was calculated by taking the ratio of dose normalized AUClast following oral administration to IV administration.

Which results are given for `NCCO` [Etn, monoethanolamine]?
reduction of survival (DU145): 30-52%; stability in SGF [1]: stable; reduction of OCR compared to controls (PC-3 cells): ~26%; expression of cell-cycle and apoptotic markers in tumor lysates ([2]; 40 mg/kg Etn-treated mice): upregulated p21, Bax, pBcl2 c-PARP, Bim and Bid; p53 protein level in tumors ([2]; 40 mg/kg Etn-treated mice): higher levels of p53 protein than untreated control tumors; HIF1-α protein expression in tumors ([2]; Etn-treated tumors relative to untreated control tumors): Downregulation of HIF1-α protein expression; AUClast of Etn compared to PhosE ([3]; oral 40 mg/kg Etn): 13 fold; Cmax of Etn compared to PhosE ([3]; oral 40 mg/kg Etn): 32 fold; time to reach peak plasma concentration ([3]; oral Etn administration, analyte Etn): 10 min
